For the data set the following is noted: 25.0 °C.

`CC1=CCC2C(C1)C2(C)C` (stereo unspecified) yielded a log10 OH rate constant (cm³/molecule/s) of -10.1.
`CC(C)CCO[N+](=O)[O-]` had a log10 OH rate constant (cm³/molecule/s) of -11.7.
In the case of `C1=CCCC1` it was -10.2.
`C=CC/C=C/C` registered a log10 OH rate constant (cm³/molecule/s) of -10.
In the case of `CCOCCOC(=O)C(C)C` it was -10.9.
In the case of `Cc1ccc(C)c(O)c1` it was -10.1.
In the case of `CCOC(C)(C)C` it was -11.1; in that of `Cl/C=C\Cl`, -11.6.
The molecule `CCCOC=O` registered a log10 OH rate constant (cm³/molecule/s) of -11.6.
`FC(C(F)C(F)(F)C(F)(F)F)C(F)(F)F` (stereo unspecified): the log10 OH rate constant (cm³/molecule/s) was -14.5.
In the case of `COCC(F)(F)F` it was -12.2.
Next, `ClCC(Cl)(Cl)Cl`: -13.7; `ClCC(Br)CBr` (stereo unspecified): -12.4.
Next, `C1=CC2CCC1CC2`: -10.4.
As for `Nc1ccccc1`, the log10 OH rate constant (cm³/molecule/s) was -9.95.
Next, `O=C1CCCC1`: -11.5; `Fc1c(F)c(F)c(F)c(F)c1F`: -12.8.
In the case of `C=C(Cl)Cl` it was -11; in that of `C1CC1`, -13.1.
In turn, `C/C=C/C(C)C` gave a log10 OH rate constant (cm³/molecule/s) of -10.2.
Next, `CC(F)(F)C(F)(Cl)Cl`: -14.6; `CCCCOC(C)=O`: -11.3; `FC(F)(Cl)CCl`: -13.8.
Take `Clc1ccc(Cl)c(Cl)c1`: the log10 OH rate constant (cm³/molecule/s) is -12.3.
With `C=CC(=O)OCC`, the log10 OH rate constant (cm³/molecule/s) was -10.8.
Next, `COP(=O)(OC)SC`: -11; `CC(=O)Cl`: -14.
Next, `CC(C)OC(C)C`: -11.
In the case of `C=C(C)CCC` it was -10.2; in that of `CCCCCCCO`, -10.9.
For `COCC(Cl)Cl`, the log10 OH rate constant (cm³/molecule/s) is -11.6.
In the case of `CCCC(=O)OCC` it was -11.3; in that of `CCC#N`, -12.7; in that of `CCCOCCC`, -10.7.
Next, `C[N+](=O)[O-]`: -12.9.
Next, `CC(C)O`: -11.3; `CCCOC(=O)CCC`: -11.1.
The molecule `C#CCCCC` returned a log10 OH rate constant (cm³/molecule/s) of -10.9.
Regarding `CCCCCO[N+](=O)[O-]`, the log10 OH rate constant (cm³/molecule/s) was -11.5.
In the case of `CC=CCC` it was -10.2; in that of `CCOC(=O)CC`, -11.7.
Next, `ClCCCl`: -12.6.
Consider `CC(=O)OC(C)(C)C`, for which the log10 OH rate constant (cm³/molecule/s) was -12.3.
Next, `CCOC=CC(=O)OCC`: -10.5; `CC(F)(F)Cl`: -14.5.
In the case of `C=CCCC(=C)C` it was -10.
In the case of `CC(Cl)(Cl)Cl` it was -14.
Turning to `COP(=O)(OC)OC`, the log10 OH rate constant (cm³/molecule/s) is -11.1.
With `CCC(C)=C(C)C`, the log10 OH rate constant (cm³/molecule/s) is -9.99.
Next, `CCC=C(C)C`: -10.1; `CCCCCCCCCCCCCCC`: -10.7.
In the case of `CCCCOCC`, the log10 OH rate constant (cm³/molecule/s) was -10.7.
For `C1CC[C@H]2CCC[C@@H]2C1` (racemic), the log10 OH rate constant (cm³/molecule/s) is -10.8.
In the case of `FCC(F)(F)F` it was -14.3.
In the case of `CCCCOC=O` it was -11.5.
Next, `Cc1cc(C)cc(O)c1`: -9.95; `CC(C)=O`: -12.7; `C=CC`: -10.6.
`FC(F)(F)C(Cl)Cl` gave a log10 OH rate constant (cm³/molecule/s) of -13.4.
`C=CCCCOC(C)=O` returned a log10 OH rate constant (cm³/molecule/s) of -10.4.
In the case of `FC(F)OC(F)(F)F` it was -14.5.

Values taken from the OPERA property sets (Mansouri et al. 2018).
